49 substances from patent US10517889B2, “Modulators of SMAD7 expression” (Ionis Pharmaceuticals, Inc., priority 2017, dated 2019) can be followed below.

Strand notation (5' to 3'): a small letter for the sugar, then the base; units joined by * are phosphorothioate-linked, units joined directly phosphodiester-linked; [ ] holds rarer units or linkages, { } end groups; capitals alone tell only the bases. k = constrained ethyl (cEt); [5mC] = 5-methylcytosine; d = 2'-deoxy (DNA)

As usually defined, the % Inhibition is the drop in the measured response relative to a control, in per cent. A low value points to little suppression.

The subject of one series is human SMAD7 mRNA. Nature of the series: Antisense inhibition of human SMAD7 mRNA expression in Hep3B cells by 3-10-3 cEt gapmers, 10,000 nM, electroporation (Example 2). The series is classed as cell-based. The conditions noted are these: Hep3B cells, electroporation with 10,000 nM antisense oligonucleotide, approximately 24 hours, RTS5062, percent inhibition of SMAD7 mRNA relative to untreated control cells. The method in brief: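 SMAD7 mRNA was measured by real-time PCR (RTS5062) with RiboGreen total-RNA normalization, about 24 h after 10,000 nM gapmer was delivered by electroporation into Hep3B cells at 20,000 per well. Gapmers were 16-mer 3-10-3 cEt, fully phosphorothioate; values are % inhibition versus untreated controls.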
In the case of “799532 (kG*k[5mC]*kA*dG*dA*dA*dG*dG*d[5mC]*d[5mC]*dA*d[5mC]*d[5mC]*k[5mC]*k[5mC]*k[5mC]; antisense) [compound 799532]”, the “% Inhibition” value stood at 21%. Still for that read-out and setting: next, “799533 (kG*kA*kA*dT*dG*dA*dA*dG*dT*d[5mC]*d[5mC]*dA*dG*kA*k[5mC]*k[5mC]; antisense) [compound 799533]”: 50%; “799545 (kT*k[5mC]*k[5mC]*d[5mC]*dA*d[5mC]*d[5mC]*d[5mC]*dT*dG*dG*dT*dG*k[5mC]*kT*k[5mC]; antisense) [compound 799545]”: 9%; “799546 (kT*kA*k[5mC]*dT*dG*dT*dT*dG*dG*d[5mC]*dA*dG*dT*kG*k[5mC]*kT; antisense) [compound 799546]”: 48%. In the case of “799547 (kT*k[5mC]*k[5mC]*dT*dA*d[5mC]*dT*dG*dT*dT*dG*dG*d[5mC]*kA*kG*kT; antisense) [compound 799547]”, the “% Inhibition” value amounted to 50%. The same measure, in the same setting: next, “799548 (k[5mC]*kT*k[5mC]*d[5mC]*dT*dA*d[5mC]*dT*dG*dT*dT*dG*dG*k[5mC]*kA*kG; antisense) [compound 799548]”: 39%; “799549 (kG*k[5mC]*kT*d[5mC]*d[5mC]*dT*dA*d[5mC]*dT*dG*dT*dT*dG*kG*k[5mC]*kA; antisense) [compound 799549]”: 53%; “799550 (kA*kG*k[5mC]*dT*d[5mC]*d[5mC]*dT*dA*d[5mC]*dT*dG*dT*dT*kG*kG*k[5mC]; antisense) [compound 799550]”: 50%. The same measure, in the same setting: as for “799551 (kT*kT*kA*d[5mC]*dA*dG*d[5mC]*dT*d[5mC]*d[5mC]*dT*dA*d[5mC]*kT*kG*kT; antisense) [compound 799551]”, the figure is 12%; as for “799552 (kA*kG*kG*dG*dA*dA*d[5mC]*dA*dA*dT*dT*dA*d[5mC]*kA*kG*k[5mC]; antisense) [compound 799552]”, 58%; as for “799553 (k[5mC]*k[5mC]*k[5mC]*d[5mC]*dG*d[5mC]*dT*dA*dG*dG*dG*dA*dA*k[5mC]*kA*kA; antisense) [compound 799553]”, 46%. Same read-out and setting: next, “799567 (k[5mC]*kT*kT*dT*dG*dA*dG*dT*dA*dA*dA*d[5mC]*dA*kA*kT*kA; antisense) [compound 799567]”: 15%; “799569 (k[5mC]*kT*k[5mC]*dT*dA*dG*dG*dT*d[5mC]*d[5mC]*d[5mC]*dT*d[5mC]*kT*kT*kT; antisense) [compound 799569]”: 24%. “799570 (kA*kA*kA*dA*dG*dA*dT*dG*d[5mC]*dA*dG*dT*dT*k[5mC]*kA*k[5mC]; antisense) [compound 799570]”: the “% Inhibition” value was 39%. “799571 (k[5mC]*kA*kG*dA*dA*dA*dA*dG*dA*dT*dG*d[5mC]*dA*kG*kT*kT; antisense) [compound 799571]”: the “% Inhibition” value worked out at 46%. Same read-out and setting: next, “799573 (kA*kA*kT*dA*dA*dA*dA*d[5mC]*d[5mC]*dA*dT*d[5mC]*dT*kA*kA*k[5mC]; antisense) [compound 799573]”: 0%; “799584 (kT*kA*kT*d[5mC]*dA*dA*dG*dA*dA*dG*dA*d[5mC]*dA*kA*kA*k[5mC]; antisense) [compound 799584]”: 39%; “799585 (kA*kG*kA*d[5mC]*dA*dA*dG*dA*dT*dG*dT*dT*dA*kT*k[5mC]*kA; antisense) [compound 799585]”: 34%. On the same count and under the same terms, next, “799586 (kG*kA*kG*dG*dA*dG*dG*d[5mC]*dA*d[5mC]*dT*d[5mC]*dA*kG*kG*k[5mC]; antisense) [compound 799586]”: 50%; “799587 (kT*kT*k[5mC]*dA*d[5mC]*dA*dG*dG*dT*d[5mC]*dA*d[5mC]*dA*kT*kG*kG; antisense) [compound 799587]”: 42%; “799588 (kA*kA*kA*dA*dA*dG*d[5mC]*d[5mC]*d[5mC]*dA*d[5mC]*d[5mC]*d[5mC]*kA*kT*k[5mC]; antisense) [compound 799588]”: 44%. Consider “799590 (k[5mC]*kT*kG*d[5mC]*dA*dG*dT*d[5mC]*dT*dT*d[5mC]*dT*dG*kA*kA*kG; antisense) [compound 799590]”, for which the “% Inhibition” value is 9%. The same measure, in the same setting: as for “799591 (kA*kT*kT*dA*dG*dT*dA*dA*dA*dT*d[5mC]*dA*dA*kG*kA*kG; antisense) [compound 799591]”, the figure is 56%; as for “799592 (kG*kG*kA*dA*dT*dT*dA*dG*dT*dA*dA*dA*dT*k[5mC]*kA*kA; antisense) [compound 799592]”, 47%.

Staying with this series, now noted: Hep3B cells, electroporation, 10,000 nM antisense oligonucleotide, approximately 24 hours, RTS5062, relative to untreated control cells.
Turning to “799535 (kA*kA*k[5mC]*dT*dT*dA*dA*dG*dG*d[5mC]*dA*dT*dA*kT*kA*kA; antisense) [compound 799535]”, the “% inhibition of SMAD7 mRNA expression” value is recorded as 42%. In the case of “799536 (kA*k[5mC]*k[5mC]*dG*dA*dT*dG*d[5mC]*dA*dT*d[5mC]*d[5mC]*dA*kA*k[5mC]*kT; antisense) [compound 799536]”, the “% inhibition of SMAD7 mRNA expression” value is recorded as 50%.

For “799537 (kG*kG*kG*d[5mC]*dA*d[5mC]*d[5mC]*dA*d[5mC]*dA*dA*dT*dG*kT*k[5mC]*kA; antisense) [compound 799537]”, the “% inhibition of SMAD7 mRNA expression” value is on record as 3%. The same measure, in the same setting: next, “799538 (kT*kG*k[5mC]*dA*dG*dG*dA*dT*dG*dA*dG*dG*dA*kG*k[5mC]*kT; antisense) [compound 799538]”: 29%; “799539 (k[5mC]*k[5mC]*k[5mC]*dG*dT*d[5mC]*d[5mC]*dA*d[5mC]*dG*dG*dA*dA*k[5mC]*kG*kG; antisense) [compound 799539]”: 41%. Same read-out and setting: next, “799541 (kT*kT*kA*dA*dT*dG*dA*d[5mC]*dA*d[5mC]*d[5mC]*dA*dA*kA*kG*kT; antisense) [compound 799541]”: 55%; “799542 (kG*kT*kT*dA*dA*dT*dG*dA*d[5mC]*dA*d[5mC]*d[5mC]*dA*kA*kA*kG; antisense) [compound 799542]”: 30%.

For “799554 (kT*kA*k[5mC]*d[5mC]*dT*dG*dT*dG*dA*dG*d[5mC]*d[5mC]*d[5mC]*kT*kG*kA; antisense) [compound 799554]”, the “% inhibition of SMAD7 mRNA expression” value was determined as 0%. Take “799555 (kT*kA*k[5mC]*d[5mC]*d[5mC]*d[5mC]*dG*dT*dG*d[5mC]*d[5mC]*dT*dG*kT*k[5mC]*kA; antisense) [compound 799555]”: the “% inhibition of SMAD7 mRNA expression” value is 51%. Still for that read-out and setting: as for “799557 (kA*kG*k[5mC]*d[5mC]*dA*dG*dT*dT*d[5mC]*dT*dT*dA*dG*kA*kA*kA; antisense) [compound 799557]”, the figure is 28%; as for “799558 (k[5mC]*kT*kT*d[5mC]*dT*dA*dT*dT*d[5mC]*dG*dA*dG*d[5mC]*kT*kG*k[5mC]; antisense) [compound 799558]”, 47%; as for “799559 (kA*kG*k[5mC]*dT*dT*d[5mC]*dT*dA*dT*dT*d[5mC]*dG*dA*kG*k[5mC]*kT; antisense) [compound 799559]”, 37%. On the same count and under the same terms, as for “799560 (kG*kG*k[5mC]*dA*d[5mC]*dA*dG*d[5mC]*dT*dT*d[5mC]*dT*dA*kT*kT*k[5mC]; antisense) [compound 799560]”, the figure is 18%. Turning to “799561 (kG*kG*kA*dA*dT*dG*dA*dA*d[5mC]*dT*dT*dT*dG*k[5mC]*k[5mC]*kT; antisense) [compound 799561]”, the “% inhibition of SMAD7 mRNA expression” value came to 45%. Turning to “799562 (kG*kA*kA*dG*dA*dG*dG*dA*dG*dA*dG*d[5mC]*d[5mC]*kG*kG*kG; antisense) [compound 799562]”, the “% inhibition of SMAD7 mRNA expression” value is on record as 39%. The same measure, in the same setting: next, “799574 (k[5mC]*kA*kT*dT*d[5mC]*dA*dG*dG*dG*dT*dT*dT*dA*kA*kA*kA; antisense) [compound 799574]”: 7%; “799575 (k[5mC]*kA*k[5mC]*dA*dT*dT*d[5mC]*dA*dG*dG*dG*dT*dT*kT*kA*kA; antisense) [compound 799575]”: 38%. Take “799576 (kG*kA*kA*dA*dG*dG*dA*d[5mC]*d[5mC]*d[5mC]*dT*dT*dT*k[5mC]*kA*kA; antisense) [compound 799576]”: the “% inhibition of SMAD7 mRNA expression” value stood at 25%. “799578 (kA*k[5mC]*k[5mC]*dT*dT*d[5mC]*d[5mC]*dG*dA*dA*dA*dG*dG*kA*k[5mC]*k[5mC]; antisense) [compound 799578]”: the “% inhibition of SMAD7 mRNA expression” value is 76%. The same measure, in the same setting: as for “799579 (kA*kA*k[5mC]*d[5mC]*dT*dT*d[5mC]*d[5mC]*dG*dA*dA*dA*dG*kG*kA*k[5mC]; antisense) [compound 799579]”, the figure is 51%. Regarding “799580 (kA*kA*kA*d[5mC]*d[5mC]*dT*dT*d[5mC]*d[5mC]*dG*dA*dA*dA*kG*kG*kA; antisense) [compound 799580]”, the “% inhibition of SMAD7 mRNA expression” value is 33%. Regarding “799581 (k[5mC]*kA*kA*dA*d[5mC]*d[5mC]*dT*dT*d[5mC]*d[5mC]*dG*dA*dA*kA*kG*kG; antisense) [compound 799581]”, the “% inhibition of SMAD7 mRNA expression” value was found to be 0%.

As to “799582 (kA*k[5mC]*kA*dA*dA*d[5mC]*d[5mC]*dT*dT*d[5mC]*d[5mC]*dG*dA*kA*kA*kG; antisense) [compound 799582]”, the “% inhibition of SMAD7 mRNA expression” value is reported as 19%. On the same count and under the same terms, next, “799593 (kG*kA*kA*dG*dG*dA*dG*d[5mC]*dT*d[5mC]*dA*dA*dA*k[5mC]*kT*kT; antisense) [compound 799593]”: 0%. Regarding “799594 (kT*kG*kA*dA*d[5mC]*dG*dG*dA*dA*dA*dG*dA*dA*kG*kA*kA; antisense) [compound 799594]”, the “% inhibition of SMAD7 mRNA expression” value came to 35%.
